PubChem BioAssay AID1745844 (Carcinogenic Potency Database (CPDB), 2022)
Calls of active or inactive are those of the source. The rule behind the calls is not given here.

Test system: rodent lifetime carcinogenesis bioassay, tumor incidence TD50
Assay: chronic cancer bioassays in animals – CPDB, compiled studies (AID 1745844)
[1] = rat, strain Fischer 344, females, in feed, site: liver, lesion: hepatocellular adenoma + hepatocellular carcinoma + neoplastic nodule, dosed 103 weeks, study length 104 weeks
[2] = rat, strain Fischer 344, males, in feed, site: any site (literature study), lesion: several types, types named in the paper, dosed 103 weeks, study length 104 weeks

## Cc1cc(N=Nc2c(O)ccc3ccccc23)c(S(=O)(=O)O)cc1Cl
mouse, strain B6C3F1, females, in feed, site: any site (literature study), lesion: several types, types named in the paper, dosed 103 weeks, study length 105 weeks
  TD50: 18200 mg/kg/day (inactive)
mouse, strain B6C3F1, females, in feed, site: liver, lesion: hepatocellular adenoma + hepatocellular carcinoma + neoplastic nodule, dosed 103 weeks, study length 105 weeks
  TD50: 9240 mg/kg/day
mouse, strain B6C3F1, females, in feed, site: lung, lesion: alveolar/bronchiolar adenoma + alveolar/bronchiolar carcinoma, dosed 103 weeks, study length 105 weeks
  TD50: 9200 mg/kg/day
mouse, strain B6C3F1, males, in feed, site: any site (literature study), lesion: several types, types named in the paper, dosed 103 weeks, study length 104 weeks
  TD50: 2120 mg/kg/day (inactive)
mouse, strain B6C3F1, males, in feed, site: liver, lesion: hepatocellular adenoma + hepatocellular carcinoma + neoplastic nodule, dosed 103 weeks, study length 104 weeks
  TD50: 781 mg/kg/day
mouse, strain B6C3F1, males, in feed, site: lung, lesion: alveolar/bronchiolar adenoma + alveolar/bronchiolar carcinoma, dosed 103 weeks, study length 104 weeks
  TD50: 5390 mg/kg/day
[1]
  TD50: 1140 mg/kg/day
rat, strain Fischer 344, females, in feed, site: liver, lesion: neoplastic nodule, dosed 103 weeks, study length 104 weeks
  TD50: 1140 mg/kg/day
[2]
  TD50: 331 mg/kg/day
rat, strain Fischer 344, males, in feed, site: liver + spleen, lesion: hepatocellular carcinoma + neoplastic nodule + fibrosarcoma + leiomyosarcoma + osteosarcoma + sarcoma, NOS, dosed 103 weeks, study length 104 weeks
  TD50: 104 mg/kg/day
rat, strain Fischer 344, males, in feed, site: liver, lesion: hepatocellular adenoma + hepatocellular carcinoma + neoplastic nodule, dosed 103 weeks, study length 104 weeks
  TD50: 357 mg/kg/day
rat, strain Fischer 344, males, in feed, site: liver, lesion: hepatocellular carcinoma + neoplastic nodule, dosed 103 weeks, study length 104 weeks
  TD50: 357 mg/kg/day
rat, strain Fischer 344, males, in feed, site: liver, lesion: neoplastic nodule, dosed 103 weeks, study length 104 weeks
  TD50: 265 mg/kg/day
rat, strain Fischer 344, males, in feed, site: spleen, lesion: fibrosarcoma + leiomyosarcoma + osteosarcoma + sarcoma, NOS, dosed 103 weeks, study length 104 weeks
  TD50: 146 mg/kg/day
rat, strain Fischer 344, males, in feed, site: spleen, lesion: fibrosarcoma, dosed 103 weeks, study length 104 weeks
  TD50: 211 mg/kg/day
rat, strain Fischer 344, males, in feed, site: spleen, lesion: osteosarcoma, dosed 103 weeks, study length 104 weeks
  TD50: 728 mg/kg/day
rat, strain Osborne-Mendel, females, in feed, site: pituitary gland, lesion: adenoma, dosed 108 weeks, study length 108 weeks
  carcinogen call: negative (inactive)
rat, strain Osborne-Mendel, males, in feed, site: all sites, lesion: fibrosarcoma, dosed 108 weeks, study length 108 weeks
  carcinogen call: negative (inactive)
rat, strain Osborne-Mendel, males, in feed, site: testis, lesion: interstitial-cell adenoma, dosed 108 weeks, study length 108 weeks
  TD50: 28600 mg/kg/day (inactive)

## Clc1nc(Cl)nc(Nc2ccccc2Cl)n1
mouse, strain B6C3F1, females, in feed, site: any site (literature study), lesion: several types, types named in the paper, dosed 103 weeks, study length 107 weeks
  TD50: 99.2 mg/kg/day (inactive)
mouse, strain B6C3F1, females, in feed, site: liver, lesion: hepatocellular adenoma + hepatocellular carcinoma + neoplastic nodule, dosed 103 weeks, study length 107 weeks
  TD50: 2550 mg/kg/day
mouse, strain B6C3F1, females, in feed, site: lung, lesion: alveolar/bronchiolar adenoma + alveolar/bronchiolar carcinoma, dosed 103 weeks, study length 107 weeks
  TD50: 1690 mg/kg/day
mouse, strain B6C3F1, males, in feed, site: any site (literature study), lesion: several types, types named in the paper, dosed 103 weeks, study length 107 weeks
  carcinogen call: negative (inactive)
rat, strain Fischer 344, females, in feed, site: any site (literature study), lesion: several types, types named in the paper, dosed 103 weeks, study length 104 weeks
  carcinogen call: negative (inactive)
[1]
  TD50: 1050 mg/kg/day
[2]
  TD50: 246 mg/kg/day (inactive)

## Cc1ccc(S(=O)(=O)OCCN(C)N=O)cc1
rat, strain Fischer 344, females, by gavage, site: liver, lesion: hemangiosarcoma, dosed 121 weeks, study length 121 weeks
  TD50: 12.8 mg/kg/day
rat, strain Fischer 344, females, by gavage, site: liver, lesion: hepatocellular carcinoma, dosed 121 weeks, study length 121 weeks
  TD50: 7.55 mg/kg/day
rat, strain Fischer 344, females, by gavage, site: liver, lesion: neoplastic nodule, dosed 121 weeks, study length 121 weeks
  TD50: 22.3 mg/kg/day
rat, strain Fischer 344, females, by gavage, site: liver, lesion: several types, types named in the paper, dosed 121 weeks, study length 121 weeks
  TD50: 3.47 mg/kg/day
rat, strain Fischer 344, males, by gavage, site: liver, lesion: hemangiosarcoma, dosed 121 weeks, study length 121 weeks
  TD50: 11.8 mg/kg/day
rat, strain Fischer 344, males, by gavage, site: liver, lesion: hepatocellular carcinoma, dosed 121 weeks, study length 121 weeks
  TD50: 32.2 mg/kg/day
rat, strain Fischer 344, males, by gavage, site: liver, lesion: neoplastic nodule, dosed 121 weeks, study length 121 weeks
  TD50: 12.6 mg/kg/day
rat, strain Fischer 344, males, by gavage, site: liver, lesion: several types, types named in the paper, dosed 121 weeks, study length 121 weeks
  TD50: 7.79 mg/kg/day
rat, strain Fischer 344, males, by gavage, site: pituitary gland, lesion: adenoma, dosed 121 weeks, study length 121 weeks
  TD50: 11.1 mg/kg/day
rat, strain Fischer 344, males, by gavage, site: testis, lesion: interstitial-cell tumor, dosed 121 weeks, study length 121 weeks
  TD50: 11.1 mg/kg/day

## CCN=[N+](C)[O-]
rat, strain Fischer 344, males, in drinking water, site: kidney, lesion: several types, types named in the paper, dosed 30 weeks, study length 95 weeks
  TD50: 123 mg/kg/day
rat, strain Fischer 344, males, in drinking water, site: liver, lesion: hemangiosarcoma, dosed 30 weeks, study length 95 weeks
  TD50: 302 mg/kg/day
rat, strain Fischer 344, males, in drinking water, site: liver, lesion: hepatocellular carcinoma, dosed 30 weeks, study length 95 weeks
  TD50: 18.2 mg/kg/day
rat, strain Fischer 344, males, in drinking water, site: liver, lesion: neoplastic nodule, dosed 30 weeks, study length 95 weeks
  TD50: 664 mg/kg/day
rat, strain Fischer 344, males, in drinking water, site: liver, lesion: several types, types named in the paper, dosed 30 weeks, study length 95 weeks
  TD50: 11.5 mg/kg/day

## C/C=C/C=O
rat, strain Charles River, males, in drinking water, site: liver, lesion: neoplastic nodule, dosed 113 weeks, study length 113 weeks
  TD50: 4.2 mg/kg/day
rat, strain Charles River, males, in drinking water, site: liver, lesion: several types, types named in the paper, dosed 113 weeks, study length 113 weeks
  TD50: 4.2 mg/kg/day

## CC(Cl)C=O (stereo not given)
mouse, strain Ha/ICR, females, by gavage, site: forestomach, lesion: one or several types, types not named, dosed 89 weeks, study length 89 weeks
  TD50: 12.9 mg/kg/day
mouse, strain Ha/ICR, males, by gavage, site: forestomach, lesion: one or several types, types not named, dosed 89 weeks, study length 89 weeks
  TD50: 22.7 mg/kg/day

## CN1CCCC1=O
mouse, strain B6C3F1, females, in feed, site: any site (literature study), lesion: benign tumor, dosed 78 weeks, study length 78 weeks
  TD50: 3440 mg/kg/day
mouse, strain B6C3F1, females, in feed, site: any site (literature study), lesion: malignant tumor, dosed 78 weeks, study length 78 weeks
  TD50: 14900 mg/kg/day
mouse, strain B6C3F1, females, in feed, site: liver, lesion: hepatocellular adenoma, dosed 78 weeks, study length 78 weeks
  TD50: 3320 mg/kg/day
mouse, strain B6C3F1, females, in feed, site: liver, lesion: hepatocellular carcinoma, dosed 78 weeks, study length 78 weeks
  TD50: 7330 mg/kg/day
mouse, strain B6C3F1, males, in feed, site: any site (literature study), lesion: benign tumor, dosed 78 weeks, study length 78 weeks
  TD50: 1630 mg/kg/day
mouse, strain B6C3F1, males, in feed, site: any site (literature study), lesion: malignant tumor, dosed 78 weeks, study length 78 weeks
  TD50: 2270 mg/kg/day
mouse, strain B6C3F1, males, in feed, site: liver, lesion: hepatocellular adenoma, dosed 78 weeks, study length 78 weeks
  TD50: 1760 mg/kg/day
mouse, strain B6C3F1, males, in feed, site: liver, lesion: hepatocellular carcinoma, dosed 78 weeks, study length 78 weeks
  TD50: 1480 mg/kg/day
mouse, strain B6C3F1, males, in feed, site: lung, lesion: adenoma, dosed 78 weeks, study length 78 weeks
  TD50: 4080 mg/kg/day
rat, strain Charles River CD (Sprague-Dawley), females, in feed, site: any site (literature study), lesion: several types, types named in the paper, dosed 104 weeks, study length 104 weeks
  carcinogen call: negative (inactive)
rat, strain Charles River CD (Sprague-Dawley), females, in feed, site: liver, lesion: several types, types named in the paper, dosed 104 weeks, study length 104 weeks
  carcinogen call: negative (inactive)
rat, strain Charles River CD (Sprague-Dawley), females, inhaled, site: liver, lesion: one or several types, types not named, dosed 104 weeks, study length 104 weeks
  carcinogen call: negative (inactive)
rat, strain Charles River CD (Sprague-Dawley), males, in feed, site: any site (literature study), lesion: several types, types named in the paper, dosed 104 weeks, study length 104 weeks
  TD50: 6060 mg/kg/day (inactive)
rat, strain Charles River CD (Sprague-Dawley), males, in feed, site: liver, lesion: several types, types named in the paper, dosed 104 weeks, study length 104 weeks
  TD50: 58500 mg/kg/day (inactive)
rat, strain Charles River CD (Sprague-Dawley), males, inhaled, site: liver, lesion: one or several types, types not named, dosed 104 weeks, study length 104 weeks
  carcinogen call: negative (inactive)

## COC(=O)C(c1ccccc1)C1CCCCN1N=O (stereo not given)
mouse, strain (C57BL/6 x BALB/c)F1, females, in drinking water, site: any site (literature study), lesion: several types, types named in the paper, dosed 73 weeks, study length 106 weeks
  carcinogen call: negative (inactive)
mouse, strain (C57BL/6 x BALB/c)F1, females, in drinking water, site: liver, lesion: one or several types, types not named, dosed 73 weeks, study length 106 weeks
  carcinogen call: negative (inactive)
mouse, strain (C57BL/6 x BALB/c)F1, females, in drinking water, site: lung, lesion: one or several types, types not named, dosed 73 weeks, study length 106 weeks
  carcinogen call: negative (inactive)
mouse, strain (C57BL/6 x BALB/c)F1, males, in drinking water, site: any site (literature study), lesion: several types, types named in the paper, dosed 73 weeks, study length 106 weeks
  carcinogen call: negative (inactive)
mouse, strain (C57BL/6 x BALB/c)F1, males, in drinking water, site: lung, lesion: one or several types, types not named, dosed 73 weeks, study length 106 weeks
  carcinogen call: negative (inactive)
